Measured values reported in patent US20240099989A1, “AGENT FOR PREVENTING OR IMPROVING PERIPHERAL NEUROPATHY” (KINKI UNIVERSITY, priority 2021, published 2024).

Tested on: Diabetic Peripheral Neuropathy in a Mouse Induced by Streptozotocin
Test: Cold plate test (4° C.), diabetic peripheral neuropathy induced by streptozotocin
Format: in vivo, C57BL/6J mice
Conditions: time course
Procedure: Six to seven-week-old male C57BL/6J mice were used for the tests as with Example 7. All the mice were acclimated for seven days after arrival. Then, the mice were grouped into the following four groups: a control group, a group receiving streptozotocin, a group receiving 1 mg/kg xylitol, and a group receiving streptozotocin+1 mg/kg xylitol. Each group consisted of nine mice.
The mice in the group receiving 1 mg/kg xylitol were orally administered with xylitol at a dose of 1 mg/kg daily from Day 0. The mice in the group receiving streptozotocin+1 mg/kg xylitol were orally administered with xylitol at a dose of 1 mg/kg daily from Day 21 of administration.
A cold plate test was performed to examine the effect due to xylitol on paresthesia that is caused by a low temperature stimulus. The mice in the four groups described in (1) of the present example (Example 8) were placed on a cold plate set at 4° C., and withdrawal response time (latent time) was measured. It is presumed that a shorter withdrawal response time (latent time) reflects a greater degree of shunning the low temperature stimulus by the cold plate. […]
On Day 8 of acclimation, the mice in the group receiving streptozotocin and the group receiving streptozotocin+5 mg/kg D-threitol were administered with streptozotocin at a dose of 200 mg/kg. A massive dose of streptozotocin destroys pancreatic cells in the mice. As a result, insulin is no longer secreted, and thus, diabetes can be developed in the mice. This day was designated as the first day of the administration (Day 0). Note that streptozotocin was administered only on the first day of administration.
The mice in the group receiving 5 mg/kg D-threitol and the group receiving streptozotocin+5 mg/kg D-threitol were orally administered with D-threitol at a dose of 5 mg/kg daily from Day 0. […]
The mice in the group receiving 5 mg/kg D-threitol were orally administered with D-threitol at a dose of 5 mg/kg daily from Day 0. The mice in the group receiving streptozotocin+5 mg/kg D-threitol were orally administered with D-threitol at a dose of 5 mg/kg daily from Day 21 of administration.
(§1) A cold plate test was performed to examine the effect of D-threitol on paresthesia that is caused by a low temperature stimulus. The mice in the four groups described in (1) of the present example (Example 10) were placed on a cold plate set at 4° C., and withdrawal response time (latent time) was measured. […]
as §1, with “L-talitol” for “D-threitol”, “11)” for “10)”

[1] = streptozotocin 200 mg/kg + 5 mg/kg orally daily from Day 21 (therapy)

Compound	withdrawal response time (latent time) [1]	withdrawal response time (latent time) (streptozotocin 200 mg/kg + 1 mg/kg orally daily from Day 21 (therapy))
OC[C@@H](O)[C@H](O)CO [D-threitol]	extended from Day 21 onwards	–
OC[C@H](O)[C@H](O)[C@H](O)[C@@H](O)CO [L-talitol]	extended from Day 21 onwards	–
OC[C@@H](O)[C@H](O)[C@@H](O)CO [xylitol]	–	extended from Day 21 onwards
